# In US8680052B1, “Methods of treating, reducing the incidence of, and/or preventing ischemic events” (The Medicines Company, priority 2013, dated 2014):
# Read-outs that look alike come from different tables or passages of the source.
# Tested on: patients with acute coronary syndromes undergoing PCI
# Settings: for Stent thrombosis / All-cause mortality / IDR / MI / Mortality/MI/IDR / Mortality/Q-wave MI/IDR / Mortality/Q-wave MI/Stent thrombosis / Q-wave MI / All-cause mortality OR (95% CI) / IDR OR (95% CI) / MI OR (95% CI) / Mortality/MI/IDR OR (95% CI) / Mortality/Q-wave MI/IDR OR (95% CI) / Mortality/Q-wave MI/Stent thrombosis OR (95% CI) / Stent thrombosis OR (95% CI) / Q-wave MI OR (95% CI): 30 days; for All-cause mortality OR (95% CI) / IDR OR (95% CI) / MI OR (95% CI) / Mortality/MI/IDR OR (95% CI) / Mortality/Q-wave MI/IDR OR (95% CI) / Mortality/Q-wave MI/Stent thrombosis OR (95% CI) / Stent thrombosis OR (95% CI) / Q-wave MI OR (95% CI): Cangrelor vs Clopidogrel; for Angiographic complications (site reported): Abrupt vessel closure / Angiographic complications (site reported): Acute stent thrombosis / Angiographic complications (site reported): Need for urgent CABG / Angiographic complications (site reported): New thrombus or suspected thrombus / Angiographic complications (site reported): Threatened abrupt closure / Angiographic complications (site reported): Unsuccessful procedure: index PCI
structure (smiles),measurement,setting,value
"CSCCNc1nc(SCCC(F)(F)F)nc2c1ncn2[C@@H]1O[C@H](COP(=O)(O)OP(=O)(O)C(Cl)(Cl)P(=O)(O)O)[C@@H](O)[C@H]1O [Cangrelor, cangrelor]",Stent thrombosis,ITT,27 (0.6) no. (%)
same,All-cause mortality,ITT With STEMI,8 (1.7) no. (%)
same,IDR,ITT With STEMI,16 (3.4) no. (%)
same,MI,ITT With STEMI,20 (4.2) no. (%)
same,Mortality/MI/IDR,ITT With STEMI,36 (7.6) no. (%)
same,Mortality/Q-wave MI/IDR,ITT With STEMI,23 (4.9) no. (%)
same,Mortality/Q-wave MI/Stent thrombosis,ITT With STEMI,14 (3.0) no. (%)
same,Q-wave MI,ITT With STEMI,2 (0.4) no. (%)
same,Stent thrombosis,ITT With STEMI,7 (1.5) no. (%)
same,All-cause mortality OR (95% CI),ITT With STEMI,"0.524 (0.222, 1.235)"
same,IDR OR (95% CI),ITT With STEMI,"1.139 (0.557, 2.331)"
same,MI OR (95% CI),ITT With STEMI,"1.263 (0.653, 2.441)"
same,Mortality/MI/IDR OR (95% CI),ITT With STEMI,"0.929 (0.582, 1.480)"
same,Mortality/Q-wave MI/IDR OR (95% CI),ITT With STEMI,"0.778 (0.447, 1.355)"
same,Mortality/Q-wave MI/Stent thrombosis OR (95% CI),ITT With STEMI,"0.560 (0.289, 1.085)"
same,Stent thrombosis OR (95% CI),ITT With STEMI,"0.741 (0.280, 1.962)"
same,All-cause mortality,ITT Without STEMI,32 (0.8) no. (%)
same,IDR,ITT Without STEMI,46 (1.2) no. (%)
same,MI,ITT Without STEMI,298 (7.6) no. (%)
same,Mortality/MI/IDR,ITT Without STEMI,345 (8.8) no. (%)
same,Mortality/Q-wave MI/IDR,ITT Without STEMI,79 (2.0) no. (%)
same,Mortality/Q-wave MI/Stent thrombosis,ITT Without STEMI,54 (1.4) no. (%)
same,Q-wave MI,ITT Without STEMI,7 (0.2) no. (%)
same,Stent thrombosis,ITT Without STEMI,20 (0.5) no. (%)
same,All-cause mortality OR (95% CI),ITT Without STEMI,"1.027 (0.626, 1.687)"
same,IDR OR (95% CI),ITT Without STEMI,"0.846 (0.569, 1.257)"
same,MI OR (95% CI),ITT Without STEMI,"1.081 (0.912, 1.281)"
same,Mortality/MI/IDR OR (95% CI),ITT Without STEMI,"1.037 (0.886, 1.215)"
same,Mortality/Q-wave MI/IDR OR (95% CI),ITT Without STEMI,"0.891 (0.656, 1.211)"
same,Mortality/Q-wave MI/Stent thrombosis OR (95% CI),ITT Without STEMI,"0.959 (0.658, 1.397)"
same,Q-wave MI OR (95% CI),ITT Without STEMI,"0.463 (0.189, 1.138)"
same,Stent thrombosis OR (95% CI),ITT Without STEMI,"0.995 (0.535, 1.852)"
same,All-cause mortality OR (95% CI),ITT,"0.852 (0.558, 1.301)"
same,IDR OR (95% CI),ITT,"0.899 (0.637, 1.271)"
same,MI OR (95% CI),ITT,"1.095 (0.929, 1.291)"
same,Mortality/MI/IDR OR (95% CI),ITT,"1.026 (0.884, 1.192)"
same,Mortality/Q-wave MI/IDR OR (95% CI),ITT,"0.856 (0.655, 1.119)"
same,Mortality/Q-wave MI/Stent thrombosis OR (95% CI),ITT,"0.829 (0.599, 1.146)"
same,Q-wave MI OR (95% CI),ITT,"0.601 (0.263, 1.374)"
same,Stent thrombosis OR (95% CI),ITT,"0.902 (0.535, 1.519)"
same,All-cause mortality,MITT,40 (0.9) no. (%)
same,IDR,MITT,60 (1.4) no. (%)
same,MI,MITT,315 (7.3) no. (%)
same,Mortality/MI/IDR,MITT,376 (8.7) no. (%)
same,Mortality/Q-wave MI/IDR,MITT,100 (2.3) no. (%)
same,Mortality/Q-wave MI/Stent thrombosis,MITT,68 (1.6) no. (%)
same,Q-wave MI,MITT,9 (0.2) no. (%)
same,Stent thrombosis,MITT,27 (0.6) no. (%)
same,All-cause mortality,MITT With STEMI,8 (1.8) no. (%)
same,IDR,MITT With STEMI,16 (3.7) no. (%)
same,MI,MITT With STEMI,18 (4.1) no. (%)
same,Mortality/MI/IDR,MITT With STEMI,34 (7.8) no. (%)
same,Mortality/Q-wave MI/IDR,MITT With STEMI,23 (5.3) no. (%)
same,Mortality/Q-wave MI/Stent thrombosis,MITT With STEMI,14 (3.2) no. (%)
same,Q-wave MI,MITT With STEMI,2 (0.5) no. (%)
same,Stent thrombosis,MITT With STEMI,7 (1.6) no. (%)
same,All-cause mortality OR (95% CI),MITT With STEMI,"0.732 (0.292, 1.838)"
same,IDR OR (95% CI),MITT With STEMI,"1.165 (0.561, 2.416)"
same,MI OR (95% CI),MITT With STEMI,"1.146 (0.577, 2.278)"
same,Mortality/MI/IDR OR (95% CI),MITT With STEMI,"1.015 (0.619, 1.665)"
same,Mortality/Q-wave MI/IDR OR (95% CI),MITT With STEMI,"0.929 (0.519, 1.663)"
same,Mortality/Q-wave MI/Stent thrombosis OR (95% CI),MITT With STEMI,"0.665 (0.334, 1.325)"
same,Stent thrombosis OR (95% CI),MITT With STEMI,"0.705 (0.266, 1.869)"
same,All-cause mortality,MITT Without STEMI,32 (0.8) no. (%)
same,IDR,MITT Without STEMI,44 (1.1) no. (%)
same,MI,MITT Without STEMI,297 (7.7) no. (%)
same,Mortality/MI/IDR,MITT Without STEMI,342 (8.9) no. (%)
same,Mortality/Q-wave MI/IDR,MITT Without STEMI,77 (2.0) no. (%)
same,Mortality/Q-wave MI/Stent thrombosis,MITT Without STEMI,54 (1.4) no. (%)
same,Q-wave MI,MITT Without STEMI,7 (0.2) no. (%)
same,Stent thrombosis,MITT Without STEMI,20 (0.5) no. (%)
same,All-cause mortality OR (95% CI),MITT Without STEMI,"1.177 (0.704, 1.967)"
same,IDR OR (95% CI),MITT Without STEMI,"0.837 (0.559, 1.254)"
same,MI OR (95% CI),MITT Without STEMI,"1.072 (0.905, 1.272)"
same,Mortality/MI/IDR OR (95% CI),MITT Without STEMI,"1.044 (0.891, 1.224)"
same,Mortality/Q-wave MI/IDR OR (95% CI),MITT Without STEMI,"0.930 (0.679, 1.273)"
same,Mortality/Q-wave MI/Stent thrombosis OR (95% CI),MITT Without STEMI,"1.030 (0.702, 1.511)"
same,Q-wave MI OR (95% CI),MITT Without STEMI,"0.462 (0.188, 1.134)"
same,Stent thrombosis OR (95% CI),MITT Without STEMI,"0.991 (0.533, 1.846)"
same,All-cause mortality OR (95% CI),MITT,"1.046 (0.670, 1.635)"
same,IDR OR (95% CI),MITT,"0.902 (0.634, 1.283)"
same,MI OR (95% CI),MITT,"1.078 (0.914, 1.271)"
same,Mortality/MI/IDR OR (95% CI),MITT,"1.042 (0.895, 1.211)"
same,Mortality/Q-wave MI/IDR OR (95% CI),MITT,"0.927 (0.703, 1.222)"
same,Mortality/Q-wave MI/Stent thrombosis OR (95% CI),MITT,"0.924 (0.663, 1.290)"
same,Q-wave MI OR (95% CI),MITT,"0.595 (0.260, 1.362)"
same,Stent thrombosis OR (95% CI),MITT,"0.894 (0.530, 1.506)"
same,All-cause mortality,Safety population,40 (0.9) no. (%)
same,IDR,Safety population,60 (1.4) no. (%)
same,MI,Safety population,318 (7.4) no. (%)
same,Mortality/MI/IDR,Safety population,379 (8.8) no. (%)
same,Mortality/Q-wave MI/IDR,Safety population,100 (2.3) no. (%)
same,Mortality/Q-wave MI/Stent thrombosis,Safety population,68 (1.6) no. (%)
same,Q-wave MI,Safety population,9 (0.2) no. (%)
same,Stent thrombosis,Safety population,27 (0.6) no. (%)
same,All-cause mortality OR (95% CI),Safety population,"0.974 (0.629, 1.508)"
same,IDR OR (95% CI),Safety population,"0.893 (0.628, 1.268)"
same,MI OR (95% CI),Safety population,"1.090 (0.925, 1.285)"
same,Mortality/MI/IDR OR (95% CI),Safety population,"1.040 (0.895, 1.209)"
same,Mortality/Q-wave MI/IDR OR (95% CI),Safety population,"0.897 (0.682, 1.179)"
same,Mortality/Q-wave MI/Stent thrombosis OR (95% CI),Safety population,"0.892 (0.641, 1.240)"
same,Q-wave MI OR (95% CI),Safety population,"0.598 (0.262, 1.368)"
same,Stent thrombosis OR (95% CI),Safety population,"0.898 (0.533, 1.513)"
same,Angiographic complications (site reported): Abrupt vessel closure,ITT,24 (0.6)
same,Angiographic complications (site reported): Acute stent thrombosis,ITT,2 (0.0)
same,Angiographic complications (site reported): Need for urgent CABG,ITT,10 (0.2)
same,Angiographic complications (site reported): New thrombus or suspected thrombus,ITT,17 (0.4)
same,Angiographic complications (site reported): Threatened abrupt closure,ITT,13 (0.3)
same,Angiographic complications (site reported): Unsuccessful procedure,ITT,90 (2.1)
same,Angiographic complications (site reported): Abrupt vessel closure,ITT With STEMI,4 (0.9)
same,Angiographic complications (site reported): Acute stent thrombosis,ITT With STEMI,0 (0.0)
same,Angiographic complications (site reported): Need for urgent CABG,ITT With STEMI,2 (0.4)
same,Angiographic complications (site reported): New thrombus or suspected thrombus,ITT With STEMI,1 (0.2)
same,Angiographic complications (site reported): Threatened abrupt closure,ITT With STEMI,4 (0.9)
same,Angiographic complications (site reported): Unsuccessful procedure,ITT With STEMI,9 (2.0)
same,Angiographic complications (site reported): Abrupt vessel closure,ITT Without STEMI,20 (0.5)
same,Angiographic complications (site reported): Acute stent thrombosis,ITT Without STEMI,2 (0.1)
same,Angiographic complications (site reported): Need for urgent CABG,ITT Without STEMI,8 (0.2)
same,Angiographic complications (site reported): New thrombus or suspected thrombus,ITT Without STEMI,16 (0.4)
same,Angiographic complications (site reported): Threatened abrupt closure,ITT Without STEMI,9 (0.2)
same,Angiographic complications (site reported): Unsuccessful procedure,ITT Without STEMI,81 (2.1)
same,Angiographic complications (site reported): Abrupt vessel closure,MITT,24 (0.6)
same,Angiographic complications (site reported): Acute stent thrombosis,MITT,2 (0.0)
same,Angiographic complications (site reported): Need for urgent CABG,MITT,8 (0.2)
same,Angiographic complications (site reported): New thrombus or suspected thrombus,MITT,17 (0.4)
same,Angiographic complications (site reported): Threatened abrupt closure,MITT,13 (0.3)
same,Angiographic complications (site reported): Unsuccessful procedure,MITT,90 (2.1)
same,Angiographic complications (site reported): Abrupt vessel closure,MITT NSTEMI,20 (0.5)
same,Angiographic complications (site reported): Acute stent thrombosis,MITT NSTEMI,2 (0.1)
same,Angiographic complications (site reported): Need for urgent CABG,MITT NSTEMI,7 (0.2)
same,Angiographic complications (site reported): New thrombus or suspected thrombus,MITT NSTEMI,16 (0.4)
same,Angiographic complications (site reported): Threatened abrupt closure,MITT NSTEMI,9 (0.2)
same,Angiographic complications (site reported): Unsuccessful procedure,MITT NSTEMI,81 (2.1)
same,Angiographic complications (site reported): Abrupt vessel closure,Safety population,24 (0.6)
same,Angiographic complications (site reported): Acute stent thrombosis,Safety population,2 (0.0)
same,Angiographic complications (site reported): Need for urgent CABG,Safety population,8 (0.2)
same,Angiographic complications (site reported): New thrombus or suspected thrombus,Safety population,17 (0.4)
same,Angiographic complications (site reported): Threatened abrupt closure,Safety population,13 (0.3)
same,Angiographic complications (site reported): Unsuccessful procedure,Safety population,90 (2.1)
